# Patent publication US6531485B2, “Prostaglandin agonists” (priority 1997, dated 2003)
# How the values were obtained:
# wild type 293S cells = test: Kidney regeneration assay: BMP-7 expression by Northern blot in wild type 293S cells; format: cell-based, human; settings: parental 293S cell line, 10^-6M, RNA at 8, 16 and 24 hours
# Procedure: (§1) Methods: 293S and EP2 293S cells are grown in Dulbecco's Modified Egale medium (DMEM, Gibco, BRL; Gaithersburg, Md.). […] Cells are harvested and RNA is extracted at 8, 16 and 24 hours. Northern blot analysis of total […] is carried out by probing the blots with ^32P-labeled BMP-7 probe. The blots are normalized for RNA loading by hybridization with ^32P-labeled 18s ribosomal RNA probe. […] Given the known role of BMP-7 in kidney regeneration and the ability of an prostaglandin agonist to induce BMP-7 expression in 293S kidney cells in a time and receptor specific manner indicates a role for prostaglandin agonist in kidney regeneration.
# [1] = tested on: 293S cells transfected with EP2; test: Kidney regeneration assay: BMP-7 expression by Northern blot in EP2 293S cells; format: cell-based, human; settings: 10^-6M, RNA at 8, 16 and 24 hours
# Procedure: as §1
compound,measurement,setting,value
"CCCCC[C@H](O)/C=C/[C@H]1[C@H](O)CC(=O)[C@@H]1C/C=C\CCCC(=O)O [PGE2, Prostaglandin E2]",induction of expression of BMP-7,wild type 293S cells,generally not observed
same,induction of expression of BMP-7,[1],induce the expression of BMP-7 in the EP2 293S cells in a time dependent manner
